According to patent US20250171420A1 (Monte Rosa Therapeutics, Inc., priority 2022, published 2025):
Read-outs that look alike come from different tables or passages of the source.

Experiments:
CK1α = molecular target: T1, CK1α (Homo sapiens, UniProt P48729); assay: CK1α NanoBit Assay (HiBiT-tagged CSNK1A1, HEK293 clonal lines); type: cell-based; conditions: HEK293 HiBiT-CSNK1A1/LgBiT cells, 24 h incubation
T1 construct: HEK293 clonal lines with CRISPR KI HiBiT tag on CSNK1A1
Method in brief: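 HEK293 clones carrying a CRISPR knock-in HiBiT tag on CSNK1A1 and stably expressing LgBiT are treated with compound for 24 hours at 37° C, 5% CO2, then read by luminescence. Response is normalized as 100*(S−N)/(P−N) against plate negative and positive controls, and DC50 values are derived.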

CRBN/DDB1 = CRBN/DDB1 (Homo sapiens, UniProt Q96SW2); assay: HTRF binding assay (displacement of Cy5-thalidomide probe from CRBN/DDB1); conditions: CRBN/DDB1 2.5 nM, Cy5-Thalidomide 100 nM, 30 min; geometric mean; read-out: HTRF_Thali_Disp_DR_geo_IC50
Sequence of CRBN/DDB1 (Q96SW2 whole entry, species assumed): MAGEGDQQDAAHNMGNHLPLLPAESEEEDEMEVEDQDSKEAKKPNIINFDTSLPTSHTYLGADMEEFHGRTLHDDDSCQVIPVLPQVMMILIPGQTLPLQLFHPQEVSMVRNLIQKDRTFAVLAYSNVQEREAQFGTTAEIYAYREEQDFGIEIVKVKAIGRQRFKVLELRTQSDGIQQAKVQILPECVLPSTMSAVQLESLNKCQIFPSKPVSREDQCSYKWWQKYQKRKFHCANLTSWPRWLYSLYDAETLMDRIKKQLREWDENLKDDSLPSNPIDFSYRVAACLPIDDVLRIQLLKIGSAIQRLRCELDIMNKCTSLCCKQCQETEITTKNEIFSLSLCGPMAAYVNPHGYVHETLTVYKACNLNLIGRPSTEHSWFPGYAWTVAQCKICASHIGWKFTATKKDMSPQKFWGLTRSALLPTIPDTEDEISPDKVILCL
Sequence of CRBN/DDB1 (Q16531 whole entry partner, species assumed): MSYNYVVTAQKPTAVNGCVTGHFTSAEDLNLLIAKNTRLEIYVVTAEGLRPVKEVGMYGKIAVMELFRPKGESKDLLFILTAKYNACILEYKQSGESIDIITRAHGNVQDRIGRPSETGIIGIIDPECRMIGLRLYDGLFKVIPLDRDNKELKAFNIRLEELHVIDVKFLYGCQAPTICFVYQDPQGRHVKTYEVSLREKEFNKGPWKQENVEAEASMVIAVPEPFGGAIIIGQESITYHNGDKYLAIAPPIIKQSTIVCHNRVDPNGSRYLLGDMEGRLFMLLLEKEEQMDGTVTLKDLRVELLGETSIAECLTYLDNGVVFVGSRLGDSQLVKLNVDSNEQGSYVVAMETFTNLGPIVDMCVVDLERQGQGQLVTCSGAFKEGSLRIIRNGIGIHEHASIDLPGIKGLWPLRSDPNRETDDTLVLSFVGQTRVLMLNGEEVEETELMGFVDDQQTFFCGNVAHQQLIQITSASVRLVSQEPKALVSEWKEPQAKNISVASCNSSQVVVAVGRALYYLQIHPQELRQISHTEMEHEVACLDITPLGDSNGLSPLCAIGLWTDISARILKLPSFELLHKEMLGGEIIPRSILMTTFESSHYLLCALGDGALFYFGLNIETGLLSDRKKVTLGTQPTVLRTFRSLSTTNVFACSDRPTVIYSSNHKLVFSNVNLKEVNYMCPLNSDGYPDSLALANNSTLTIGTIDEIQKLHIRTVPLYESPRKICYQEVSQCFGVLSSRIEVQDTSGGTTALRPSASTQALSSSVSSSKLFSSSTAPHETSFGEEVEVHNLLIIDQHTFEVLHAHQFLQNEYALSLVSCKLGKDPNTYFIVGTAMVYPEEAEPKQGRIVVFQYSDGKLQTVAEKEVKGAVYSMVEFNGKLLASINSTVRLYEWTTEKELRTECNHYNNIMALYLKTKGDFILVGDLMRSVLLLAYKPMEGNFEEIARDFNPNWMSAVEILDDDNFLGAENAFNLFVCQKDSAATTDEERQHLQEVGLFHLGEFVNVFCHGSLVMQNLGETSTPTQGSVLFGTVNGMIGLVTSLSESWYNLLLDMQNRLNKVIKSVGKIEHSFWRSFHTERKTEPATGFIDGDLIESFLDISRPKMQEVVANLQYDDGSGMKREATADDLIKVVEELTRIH
Method in brief: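 Compounds in a 10-point threefold dilution series were incubated 30 min at ambient temperature with 2.5 nM CRBN/DDB1, 100 nM Cy5-thalidomide probe and terbium anti-His donor (HEPES/NaCl/TCEP/EDTA/Tween20 buffer). IC50 came from 4-parameter fits of the 665/620 nm HTRF ratio; Ki used Cheng-Prusoff on geometric-mean IC50.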

SKCO1 cell line = assay: Growth inhibition, CyQUANT Direct Cell Proliferation Assay, SKCO1; type: cell-based; conditions: Homo sapiens
Protocol: (§1) SKCO1, LS180, and LS174T cell lines were purchased from ATCC. CW2 cell line was purchased from Riken. GP2D cell line was purchased from Sigma/ECACC. All cell lines were cultured in manufacturer's recommended media at 37° C., 5% CO2. Briefly, cells were suspended in 200 μL of media and seeded at 300 to 1,800 cells per well in tissue culture treated 96-well plates with black walls and clear bottom. Plates were incubated overnight and initial (To) read was performed the following day using CyQUANT Direct Cell Proliferation Assay Kit (Thermo Fisher Scientific) according to manufacturer's protocol. All compounds were solubilized in DMSO and prepared at 3-fold serial dilution, using 9 points starting at 30 μM as highest concentration, administered to cells and incubated for 120 to 168 hours, at which point CyQUANT assay measurement was performed using Acumen Cellista instrument (Ex/Em 480/520 nm). Media-only wells were used as blank, and 0.3% DMSO was used as DMSO-treated cell control. Growth inhibition (percent response) was calculated using the following formula in Excel: “=if ([Compound treated Day N]>[Untreated Day 0, AVG], ([Compound treated Day N]−[Untreated Day 0, AVG])/([Untreated Day N]−[Untreated Day 0, AVG])*100, ([Compound Treated Day N]−[Untreated Day 0, AVG])/([Untreated Day 0, AVG])*100)”. GI50 is the response corresponding to the 50% of untreated control.
(§2) GI50 data are reported in Tables 4a, 4b, 4c, 4d, and 4e for compounds in Table 1. In Tables 4a, 4b, 4c, 4d, and 4e below, According to the code, A represents a GI50 value of ≤0.1 μM, B represents a GI50 value>0.1 μM and ≤1 μM, C represents an GI50 value>1 μM.

CW2 cell line = assay: Growth inhibition, CyQUANT Direct Cell Proliferation Assay, CW2; type: cell-based; conditions: Homo sapiens
Protocol: as §1, §2

GP2D cell line = assay: Growth inhibition, CyQUANT Direct Cell Proliferation Assay, GP2D; type: cell-based
Protocol: as §1, §2

LS180 cell line = assay: Growth inhibition, CyQUANT Direct Cell Proliferation Assay, LS180; type: cell-based; conditions: Homo sapiens
Protocol: as §1, §2

LS174T cell line = assay: Growth inhibition, CyQUANT Direct Cell Proliferation Assay, LS174T; type: cell-based; conditions: Homo sapiens
Protocol: as §1, §2

[1] = SK-CO-1, SKCO1, 120 to 168 hours, read-out: SKCO1 GI50
[2] = CW-2, CW2, 120 to 168 hours, read-out: CW2 GI50
[3] = GP2D, 120 to 168 hours, read-out: GP2D GI50
[4] = LS180, 120 to 168 hours, read-out: LS180 GI50
[5] = 120 to 168 hours, read-out: LS174T GI50
[6] = SK-CO-1, read-out: SKCO1 GI50 (μM)
[7] = LS180, read-out: LS180 GI50 (μM)

T1 sequence (P48729 whole entry): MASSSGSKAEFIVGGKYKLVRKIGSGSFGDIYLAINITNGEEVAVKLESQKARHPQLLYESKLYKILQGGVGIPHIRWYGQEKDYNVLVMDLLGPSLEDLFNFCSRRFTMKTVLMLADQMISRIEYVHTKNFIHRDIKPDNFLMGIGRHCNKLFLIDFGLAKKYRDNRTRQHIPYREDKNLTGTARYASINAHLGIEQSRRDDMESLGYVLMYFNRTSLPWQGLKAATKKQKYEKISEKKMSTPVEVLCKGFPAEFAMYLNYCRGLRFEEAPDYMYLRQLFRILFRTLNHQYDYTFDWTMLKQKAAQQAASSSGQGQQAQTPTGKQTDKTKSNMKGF
T1 sequence (Q96SW2 whole entry, further chain): as the sequence (Q96SW2 whole entry, species assumed) above
T1 sequence (Q16531 2-1140 partner limits assumed): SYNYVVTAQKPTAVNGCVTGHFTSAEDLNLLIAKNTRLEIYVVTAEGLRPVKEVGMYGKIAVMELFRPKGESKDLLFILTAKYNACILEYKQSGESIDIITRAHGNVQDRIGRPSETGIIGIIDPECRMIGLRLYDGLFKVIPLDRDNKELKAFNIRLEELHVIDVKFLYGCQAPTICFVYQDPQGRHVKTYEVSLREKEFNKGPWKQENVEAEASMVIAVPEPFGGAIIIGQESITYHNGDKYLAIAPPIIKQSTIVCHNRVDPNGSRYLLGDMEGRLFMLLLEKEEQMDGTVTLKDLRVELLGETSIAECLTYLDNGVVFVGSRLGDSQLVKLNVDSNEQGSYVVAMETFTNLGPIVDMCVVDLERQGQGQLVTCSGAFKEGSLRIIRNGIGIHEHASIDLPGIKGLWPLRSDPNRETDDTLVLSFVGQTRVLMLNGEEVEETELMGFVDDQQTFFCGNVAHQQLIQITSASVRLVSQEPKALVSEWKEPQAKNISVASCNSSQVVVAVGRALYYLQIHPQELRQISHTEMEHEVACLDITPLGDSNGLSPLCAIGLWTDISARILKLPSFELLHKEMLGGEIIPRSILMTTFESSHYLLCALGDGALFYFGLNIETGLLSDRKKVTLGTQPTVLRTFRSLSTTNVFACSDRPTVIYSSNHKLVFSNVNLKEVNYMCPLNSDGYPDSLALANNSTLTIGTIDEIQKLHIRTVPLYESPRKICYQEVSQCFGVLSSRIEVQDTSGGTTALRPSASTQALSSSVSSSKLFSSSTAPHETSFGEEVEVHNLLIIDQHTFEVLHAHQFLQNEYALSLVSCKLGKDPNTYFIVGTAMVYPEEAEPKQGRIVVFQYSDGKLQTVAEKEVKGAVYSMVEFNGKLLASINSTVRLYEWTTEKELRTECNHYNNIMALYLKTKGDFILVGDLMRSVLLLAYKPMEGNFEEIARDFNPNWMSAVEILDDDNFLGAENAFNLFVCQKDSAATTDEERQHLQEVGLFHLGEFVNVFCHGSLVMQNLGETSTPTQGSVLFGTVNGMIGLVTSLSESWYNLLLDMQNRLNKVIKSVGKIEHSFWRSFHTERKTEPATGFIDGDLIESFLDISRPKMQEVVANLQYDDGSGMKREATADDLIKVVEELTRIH

| SMILES | DC50 (CK1α) | IC50 (CRBN/DDB1) | GI50 (SKCO1 cell line; [1]) | GI50 (CW2 cell line; [2]) | GI50 (GP2D cell line; [3]) | GI50 (LS180 cell line; [4]) | GI50 (LS174T cell line; [5]) | GI50 (SKCO1 cell line; [6]) | GI50 (CW2 cell line; CW-2, read-out: CW2 GI50 (μM)) | GI50 (GP2D cell line; GP2d, read-out: GP2D GI50 (μM)) | GI50 (LS180 cell line; [7]) | GI50 (LS174T cell line; read-out: LS174T GI50 (μM)) |
| --- | --- | --- | --- | --- | --- | --- | --- | --- | --- | --- | --- | --- |
| O=C1CCC(N2Cc3cc(NC(=O)N4CCc5cc(F)ccc54)ccc3C2=O)C(=O)N1 (stereo not drawn) [Compound 178, N-(2-(2,6-dioxopiperidin-3-yl)-1-oxoisoindolin-5-yl)-5-fluoroindoline-1-carboxamide] | < 0.1 µM | 100 to 1000 nM |  |  |  |  |  | 0.1 to 1 µM | 0.1 to 1 µM | 0.1 to 1 µM | 0.1 to 1 µM | 0.1 to 1 µM |
| COC[C@H]1CN(C(=O)Nc2ccc3c(c2)CN(C2CCC(=O)NC2=O)C3=O)c2cccc(C(F)(F)F)c21 (stereo partly drawn) [Compound 329, (3R)—N-(2-(2,6-dioxopiperidin-3-yl)-1-oxoisoindolin-5-yl)-3-(methoxymethyl)-4-(trifluoromethyl)indoline-1-carboxamide] | < 0.1 µM | 100 to 1000 nM | < 0.1 µM | 0.1 to 1 µM | 0.1 to 1 µM | 0.1 to 1 µM | 0.1 to 1 µM |  |  |  |  |  |
| O=C1CCC(N2Cc3cc(NC(=O)N4CC5(CC5)c5ccccc54)ccc3C2=O)C(=O)N1 (stereo not drawn) [Compound 210, N-(2-(2,6-dioxopiperidin-3-yl)-1-oxoisoindolin-5-yl)spiro[cyclopropane-1,3′-indoline]-1′-carboxamide] | < 0.1 µM | 100 to 1000 nM |  |  |  |  |  | < 0.1 µM | < 0.1 µM | < 0.1 µM | 0.1 to 1 µM | < 0.1 µM |
| O=C1CCC(N2Cc3cc(NC(=O)N4CCc5cc(C(F)(F)F)ccc54)ccc3C2=O)C(=O)N1 (stereo not drawn) [Compound 185, N-(2-(2,6-dioxopiperidin-3-yl)-1-oxoisoindolin-5-yl)-5-(trifluoromethyl)indoline-1-carboxamide] | < 0.1 µM | 100 to 1000 nM |  |  |  |  |  | 0.1 to 1 µM | 0.1 to 1 µM | 0.1 to 1 µM | 0.1 to 1 µM | 0.1 to 1 µM |
| CC1(C)CN(C(=O)Nc2ccc3c(c2)CN(C2CCC(=O)NC2=O)C3=O)c2ccccc21 (stereo not drawn) [Compound 124, N-(2-(2,6-dioxopiperidin-3-yl)-1-oxoisoindolin-5-yl)-3,3-dimethylindoline-1-carboxamide] | < 0.1 µM | 100 to 1000 nM |  |  |  |  |  | < 0.1 µM | < 0.1 µM | < 0.1 µM | 0.1 to 1 µM | < 0.1 µM |
| O=C1CCC(N2Cc3cc(NC(=O)N4CCc5ccc(F)cc54)ccc3C2=O)C(=O)N1 (stereo not drawn) [Compound 186, N-(2-(2,6-dioxopiperidin-3-yl)-1-oxoisoindolin-5-yl)-6-fluoroindoline-1-carboxamide] | < 0.1 µM | 100 to 1000 nM |  |  |  |  |  | < 0.1 µM | < 0.1 µM | < 0.1 µM | < 0.1 µM | < 0.1 µM |
| O=C1CCC(N2Cc3cc(NC(=O)N4CCc5c(C6CC6)cccc54)ccc3C2=O)C(=O)N1 (stereo not drawn) [Compound 164, 4-cyclopropyl-N-(2-(2,6-dioxopiperidin-3-yl)-1-oxoisoindolin-5-yl)indoline-1-carboxamide] | < 0.1 µM | 100 to 1000 nM | < 0.1 µM | < 0.1 µM | < 0.1 µM | 0.1 to 1 µM | < 0.1 µM |  |  |  |  |  |
| CC1CN(C(=O)Nc2ccc3c(c2)CN(C2CCC(=O)NC2=O)C3=O)c2ccccc21 (stereo in doubt) [Compound 283, (3R)—N-(2-(2,6-dioxopiperidin-3-yl)-1-oxoisoindolin-5-yl)-3-methylindoline-1-carboxamide] | < 0.1 µM | 100 to 1000 nM | < 0.1 µM | 0.1 to 1 µM | < 0.1 µM | 0.1 to 1 µM | 0.1 to 1 µM |  |  |  |  |  |
| O=C1CCC(N2Cc3cc(NC(=O)N4CCc5ccc(Cl)cc54)ccc3C2=O)C(=O)N1 (stereo not drawn) [Compound 137, 6-chloro-N-(2-(2,6-dioxopiperidin-3-yl)-1-oxoisoindolin-5-yl)indoline-1-carboxamide] | < 0.1 µM | 100 to 1000 nM |  |  |  |  |  | 0.1 to 1 µM | < 0.1 µM | 0.1 to 1 µM | 0.1 to 1 µM | 0.1 to 1 µM |
| O=C1CCC(N2Cc3cc(NC(=O)N4CCc5c(F)cccc54)ccc3C2=O)C(=O)N1 (stereo not drawn) [Compound 201, N-(2-(2,6-dioxopiperidin-3-yl)-1-oxoisoindolin-5-yl)-4-fluoroindoline-1-carboxamide] | < 0.1 µM | > 1000 nM | < 0.1 µM | < 0.1 µM | < 0.1 µM | 0.1 to 1 µM | < 0.1 µM |  |  |  |  |  |

Second part, led by results:

| DC50 (CK1α) | IC50 (CRBN/DDB1) | GI50 (SKCO1 cell line; [1]) | SMILES | GI50 (CW2 cell line; [2]) | GI50 (GP2D cell line; [3]) | GI50 (LS180 cell line; [4]) | GI50 (LS174T cell line; [5]) | GI50 (SKCO1 cell line; [6]) | GI50 (CW2 cell line; CW-2, read-out: CW2 GI50 (μM)) | GI50 (GP2D cell line; GP2d, read-out: GP2D GI50 (μM)) | GI50 (LS180 cell line; [7]) | GI50 (LS174T cell line; read-out: LS174T GI50 (μM)) |
| --- | --- | --- | --- | --- | --- | --- | --- | --- | --- | --- | --- | --- |
| < 0.1 µM | 100 to 1000 nM | < 0.1 µM | COC[C@@H]1Cc2ccccc2N1C(=O)Nc1ccc2c(c1)CN(C1CCC(=O)NC1=O)C2=O (stereo in doubt) [Compound 337, (S)—N-(2-((S)-2,6-dioxopiperidin-3-yl)-1-oxoisoindolin-5-yl)-2-(methoxymethyl)indoline-1-carboxamide] | 0.1 to 1 µM | 0.1 to 1 µM | 0.1 to 1 µM | 0.1 to 1 µM |  |  |  |  |  |
| < 0.1 µM | > 1000 nM | 0.1 to 1 µM | COC[C@@H]1Cc2ccccc2N1C(=O)Nc1ccc2c(c1)CN(C1CCC(=O)NC1=O)C2=O (stereo in doubt) [Compound 334, (S)—N-(2-((R)-2,6-dioxopiperidin-3-yl)-1-oxoisoindolin-5-yl)-2-(methoxymethyl)indoline-1-carboxamide] | 0.1 to 1 µM | 0.1 to 1 µM | 0.1 to 1 µM | 0.1 to 1 µM |  |  |  |  |  |
| < 0.1 µM | 100 to 1000 nM | < 0.1 µM | O=C1CCC(N2Cc3cc(NC(=O)N4CCc5cc(C6CC6)ccc54)ccc3C2=O)C(=O)N1 (stereo not drawn) [Compound 348, 5-cyclopropyl-N-(2-(2,6-dioxopiperidin-3-yl)-1-oxoisoindolin-5-yl)indoline-1-carboxamide] | < 0.1 µM | < 0.1 µM | < 0.1 µM | < 0.1 µM |  |  |  |  |  |
| < 0.1 µM | 100 to 1000 nM | 0.1 to 1 µM | COC[C@@H]1Cc2c(C3CC3)cccc2N1C(=O)Nc1ccc2c(c1)CN(C1CCC(=O)NC1=O)C2=O (stereo partly drawn) [Compound 339, (2S)-4-cyclopropyl-N-(2-(2,6-dioxopiperidin-3-yl)-1-oxoisoindolin-5-yl)-2-(methoxymethyl)indoline-1-carboxamide] | 0.1 to 1 µM | 0.1 to 1 µM | > 1 µM | 0.1 to 1 µM |  |  |  |  |  |
| < 0.1 µM | 100 to 1000 nM | < 0.1 µM | COC[C@H]1CN(C(=O)Nc2ccc3c(c2)CN(C2CCC(=O)NC2=O)C3=O)c2ccccc21 (stereo partly drawn) [Compound 338, (3R)—N-(2-(2,6-dioxopiperidin-3-yl)-1-oxoisoindolin-5-yl)-3-(methoxymethyl)indoline-1-carboxamide] | 0.1 to 1 µM | < 0.1 µM | < 0.1 µM | < 0.1 µM |  |  |  |  |  |
